Data: article PMC5281649 (European Journal of Nuclear Medicine and Molecular Imaging, 2016)
Read-outs that look alike come from different tables or passages of the source.

Columns and labels:
MAO-B enzyme = target: MAO-B enzyme; design: method as in doi:10.1016/j.jalz.2013.05.1757; conditions: MAO enzymatic activity and displacement assays; read-out: IC50 from in vitro affinity assays of the MAO-B enzyme; cited from earlier work
[1] = 1 and 5 mg daily; moderate AD; compared with placebo; cited from earlier work
[2] = Pre-PET sembragiline plasma concentration at steady state (LC-MS/MS); format: in vivo, human
MAO-A = tested on: MAO-A; design: method as in doi:10.1016/j.jalz.2013.05.1757; conditions: MAO-B over MAO-A; cited from earlier work
brain MAO-B enzyme [3] = target: T1, brain MAO-B enzyme (Homo sapiens, UniProt P27338); test: Plasma concentration–MAO-B enzyme inhibition relationship (simple Emax model); format: in vivo
T1 sequence (P27338 1-520): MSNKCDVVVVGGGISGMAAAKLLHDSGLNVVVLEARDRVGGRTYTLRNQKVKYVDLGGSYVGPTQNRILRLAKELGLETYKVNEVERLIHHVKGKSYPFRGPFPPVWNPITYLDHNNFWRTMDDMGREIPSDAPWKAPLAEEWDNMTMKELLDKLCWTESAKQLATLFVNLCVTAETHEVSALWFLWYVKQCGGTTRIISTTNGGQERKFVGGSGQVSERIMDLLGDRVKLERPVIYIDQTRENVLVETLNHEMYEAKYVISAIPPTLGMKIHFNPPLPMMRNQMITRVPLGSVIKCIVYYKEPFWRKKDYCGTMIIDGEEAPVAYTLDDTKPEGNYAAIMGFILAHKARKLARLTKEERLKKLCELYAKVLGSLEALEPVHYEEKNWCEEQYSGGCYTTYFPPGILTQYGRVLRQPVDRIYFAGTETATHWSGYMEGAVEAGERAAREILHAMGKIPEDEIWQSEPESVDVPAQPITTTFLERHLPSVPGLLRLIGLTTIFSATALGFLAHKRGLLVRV
Protocol: The PK/PD analysis was performed using Phoenix WinNonlin software version 6.2 (Pharsight Corporation, Mountain View, CA, USA).

brain MAO-B enzyme [4] = target: T1, brain MAO-B enzyme; conditions: ref Roche data on file, cited from earlier work; for Brain MAO-B inhibition: young healthy subjects
[5] = design: method as in PMID 22451094; conditions: phase 1 and 2 studies, approximately 1040 subjects; cited from earlier work

CC(=O)N[C@H]1CC(=O)N(c2ccc(OCc3cccc(F)c3)cc2)C1 [sembragiline]
IC50 (MAO-B enzyme): 5 to 6 nM | Primary efficacy outcome on cognition (ADAS-Cog11) [1]: failed on the primary efficacy outcome on cognition | Pre-PET sembragiline plasma concentration at steady state, mean ([2]; AD patients, 1 mg q.d. for 14 days, N 3): 41.9 ng/mL | Pre-PET sembragiline plasma concentration at steady state, mean ([2]; AD patients, 5 mg loading day 1 then 0.1 mg q.d. Day 2–15, N 2): 2.55 ng/mL | Pre-PET sembragiline plasma concentration at steady state, mean ([2]; AD patients, 5 mg loading day 1 then 0.2 mg q.d. Day 2–7, N 3): 7.06 ng/mL | Pre-PET sembragiline plasma concentration at steady state, mean ([2]; AD patients, 5 mg q.d. for 6–9 days, N 2): 96.7 ng/mL | Pre-PET sembragiline plasma concentration at steady state, mean ([2]; EC subjects, 1 mg q.d. for 14 days, N 3): 33.9 ng/mL | Pre-PET sembragiline plasma concentration at steady state, mean ([2]; EC subjects, 5 mg loading day 1 then 0.2 mg q.d. Day 2–7, N 3): 3.29 ng/mL | Potency in inhibiting MAO-B relative to MAO-A (MAO-A): approximately 600 fold | Emax (maximum MAO-B occupancy) (brain MAO-B enzyme [3]; AD patients, frontal cortex, steady state, pre-scan plasma concentration): 81.1 (CV%: 3.2) | EC50 (brain MAO-B enzyme [3]; AD patients, frontal cortex, steady state, pre-scan plasma concentration, read-out: EC50 (plasma concentration at half-maximal occupancy) (converted)): 3.1 nM | Emax (maximum MAO-B occupancy) (brain MAO-B enzyme [3]; AD patients, hippocampus, steady state, pre-scan plasma concentration): 85.9 (CV%: 4.1) | EC50 (brain MAO-B enzyme [3]; AD patients, hippocampus, steady state, pre-scan plasma concentration, read-out: EC50 (plasma concentration at half-maximal occupancy) (converted)): 3.77 nM | Emax (maximum MAO-B occupancy) (brain MAO-B enzyme [3]; AD patients, striatum, steady state, pre-scan plasma concentration): 87.8 (CV%: 1.8) | EC50 (brain MAO-B enzyme [3]; AD patients, striatum, steady state, pre-scan plasma concentration, read-out: EC50 (plasma concentration at half-maximal occupancy) (converted)): 3.24 nM | Emax (maximum MAO-B occupancy) (brain MAO-B enzyme [3]; EC subjects, frontal cortex, steady state, pre-scan plasma concentration): 80.1 (CV%: 8.9) | EC50 (brain MAO-B enzyme [3]; EC subjects, frontal cortex, steady state, pre-scan plasma concentration, read-out: EC50 (plasma concentration at half-maximal occupancy) (converted)): 4.59 nM | Emax (maximum MAO-B occupancy) (brain MAO-B enzyme [3]; EC subjects, hippocampus, steady state, pre-scan plasma concentration): 89.1 (CV%: 9.6) | EC50 (brain MAO-B enzyme [3]; EC subjects, hippocampus, steady state, pre-scan plasma concentration, read-out: EC50 (plasma concentration at half-maximal occupancy) (converted)): 5.99 nM | Emax (maximum MAO-B occupancy) (brain MAO-B enzyme [3]; EC subjects, striatum, steady state, pre-scan plasma concentration): 88.8 (CV%: 7.5) | EC50 (brain MAO-B enzyme [3]; EC subjects, striatum, steady state, pre-scan plasma concentration, read-out: EC50 (plasma concentration at half-maximal occupancy) (converted)): 4.88 nM | Estimated Emax of MAO-B inhibition (brain MAO-B enzyme [3]; across ROIs and for both populations, steady state): 80–89% | EC50 (brain MAO-B enzyme [3]; across ROIs and for both populations, steady state, read-out: Estimated EC50 (plasma concentration)): 2.92 to 5.84 nM | Emax (brain MAO-B enzyme [3]; across ROIs and for both populations, steady state, read-out: Estimated Emax of MAO-B inhibition): 80 to 90% | Sembragiline concentration needed for near-complete MAO-B inhibition in the brain (brain MAO-B enzyme [3]; regardless of the population): around 20 ng/mL | Plasma concentration at which the plateau in MAO-B inhibition occurred (brain MAO-B enzyme [3]; steady state, AD patients and EC subjects): 20 to 50 ng/mL | Brain penetration (brain MAO-B enzyme [4]; healthy young men, PET imaging): crosses the blood–brain barrier | Brain MAO-B inhibition (brain MAO-B enzyme [4]; 5 mg daily for 2–10 days, cortical regions): 52–78% | Brain MAO-B inhibition (brain MAO-B enzyme [4]; 5 mg daily for 2–10 days, subcortical regions): 73–87% | Brain MAO-B inhibition (brain MAO-B enzyme [4]; 15 mg, cortical regions): 68–74% | Brain MAO-B inhibition (brain MAO-B enzyme [4]; 15 mg, subcortical regions): 83–86% | Safety and tolerability [5]: safe and well tolerated
